Measurements: BindingDB's records for doi:10.1016/j.bmcl.2005.09.022 (Bristol-Myers Squibb Pharmaceutical Research Institute, 2005)

Target: C-C chemokine receptor type 4 (Mus musculus) (UniProt P51680)
Experiment: Inhibition of chemotaxis of murine CCR4 transfected L1.2 cells

Chain of C-C chemokine receptor type 4 (Mus musculus) (P51680 whole entry, looked up): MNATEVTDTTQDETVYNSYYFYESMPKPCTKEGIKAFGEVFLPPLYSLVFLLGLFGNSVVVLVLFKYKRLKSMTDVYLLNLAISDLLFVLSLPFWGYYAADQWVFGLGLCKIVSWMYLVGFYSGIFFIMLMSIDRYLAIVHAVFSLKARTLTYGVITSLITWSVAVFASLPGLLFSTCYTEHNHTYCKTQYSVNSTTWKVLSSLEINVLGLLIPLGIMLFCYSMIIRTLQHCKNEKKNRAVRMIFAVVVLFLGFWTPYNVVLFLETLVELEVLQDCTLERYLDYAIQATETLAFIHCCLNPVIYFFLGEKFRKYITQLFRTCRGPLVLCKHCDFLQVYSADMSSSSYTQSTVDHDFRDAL

O=C([C@H]1CCCCN1)N1CCN(c2nccc(NCc3ccc(Cl)cc3Cl)n2)CC1 [(R)-(4-(4-(2,4-dichlorobenzylamino)pyrimidin-2-yl)piperazin-1-yl)(piperidin-2-yl)methanone]
IC50: 0.38 µM
